Reference: patent US20250270246A1, “LINCOSAMIDES AND USES THEREOF” (President and Fellows of Harvard College, priority 2022, published 2025)
Structures can show the parent of a compound that is named as a salt. Where two headings read alike, the source gives them in different places.

Key:
Experiment in all cases: MIC by broth microdilution (CLSI)
Type in all cases: cell-based
[1] = test system: A. baumannii ATCC 19606 (HAV#010); conditions: Acinetobacter baumannii, ATCC19606, 24 h, HAV#010, ATCC 19606; CaMHB, 24 h incubation; read-out: MIC A. baumannii ATCC 19606
Experimental: (§1) Minimum inhibitory concentrations (MICs) were determined by the broth microdilution method following the Clinical and Laboratory Standards Institute (CLSI) guidelines. Test organisms consisted of standard reference strains from the American Type Culture Collection (ATCC; Manassa, VA, USA) and clinical isolates obtained from JMI Laboratories Inc. (North Liberty, IA, USA), Micromyx repository (MMX; Kalamazoo, MI, USA), and Massachusetts Eye and Ear Hospital (Boston, USA). Before the start of the MIC experiment, standard and test compound stock solutions were prepared in dimethyl sulfoxide (DMSO, Aldrich D2650) at a stock concentration of 2,560 μg/mL. The compound concentration range typically employed for each experiment was 64-0.06 μg/mL (2.5% final DMSO concentration). Iboxamycin was used as a comparator in all experiments. All bacterial strains were sub-cultured on blood agar plates (tryptic soy agar with 5% sheep blood, Hardy Diagnostics) and incubated overnight at 35° C. Organisms were suspended in cation-adjusted Mueller-Hinton broth (CaMHB, BD 212322) and optical density was adjusted to 0.5 McFarland standard. Suspensions were further diluted to obtain a final inoculum of 5×10^5 CFU/mL for broth microdilution experiments. The minimum concentration of compound required to inhibit visible bacterial growth after 24 h of incubation was recorded as the MIC in μg/mL. MICs for P. aeruginosa were recorded in cation-adjusted Mueller-Hinton broth which had been pre-treated with Chelex 100 ion exchange resin according to procedures reported in Ito et al. Antimicrob Agents Chemother (2016) 60 (12), 7396-7401.

[2] = test system: S. aureus ATCC 29213 (HAV#001); conditions: Staphylococcus aureus, ATCC29213, 24 h, read-out: MIC S. aureus ATCC 29213
Experimental: as §1

[3] = test system: E. faecalis ATCC 29212 (HAV#005); conditions: Enterococcus faecalis, ATCC29212, 24 h, read-out: MIC E. faecalis ATCC 29212
Experimental: as §1

E. faecium JMI-990536 = conditions: Enterococcus faecium, JMI990536, 24 h, JMI-990536; CaMHB, 24 h incubation; read-out: MIC E. faecium JMI-990536
Experimental: as §1

E. coli lptD mutant = conditions: Escherichia coli, 24 h, read-out: MIC E. coli lptD mutant, lptD mutant / ΔlptD mutant; CaMHB, 24 h incubation
Experimental: as §1

K. pneumoniae JMI-991193 = conditions: Klebsiella pneumoniae, JMI991193, 24 h, read-out: MIC K. pneumoniae JMI-991193
Experimental: as §1

[4] = test system: E. coli ATCC 25922 (HAV#006); conditions: Escherichia coli, ATCC25922, 24 h, read-out: MIC E. coli ATCC 25922
Experimental: as §1

S. aureus Clinical (cfr) = conditions: Staphylococcus aureus, 24 h, read-out: MIC S. aureus Clinical (cfr)
Experimental: as §1

S. aureus MMX 3035 = conditions: Staphylococcus aureus, MMX3035, 24 h, read-out: MIC S. aureus MMX 3035
Experimental: as §1

E. coli ΔtolC = conditions: Escherichia coli, 24 h, read-out: MIC E. coli ΔtolC, ΔtolC; CaMHB, 24 h incubation
Experimental: as §1

[5] = HAV#001, ATCC 29213, CaMHB, 24 h incubation
[6] = HAV#005, ATCC 29212, CaMHB, 24 h incubation
[7] = JMI-991193, CaMHB, 24 h incubation
[8] = HAV#006, ATCC 25922, CaMHB, 24 h incubation
[9] = Clinical (cfr), CaMHB, 24 h incubation
[10] = MMX 3035, CaMHB, 24 h incubation

Compound	MIC [1] [µg/mL]	MIC [2, 5] [µg/mL]	MIC [3, 6] [µg/mL]	MIC (E. faecium JMI-990536) [µg/mL]	MIC (E. coli lptD mutant) [µg/mL]	MIC (K. pneumoniae JMI-991193; [7]) [µg/mL]	MIC [4, 8] [µg/mL]	MIC (S. aureus Clinical (cfr); [9]) [µg/mL]	MIC (S. aureus MMX 3035; [10]) [µg/mL]	MIC (E. coli ΔtolC) [µg/mL]	MIC [2] [µg/mL]	MIC [3] [µg/mL]	MIC (K. pneumoniae JMI-991193) [µg/mL]	MIC [4] [µg/mL]	MIC (S. aureus Clinical (cfr)) [µg/mL]	MIC (S. aureus MMX 3035) [µg/mL]
CC(C)C[C@@H]1CCO[C@@H]2[C@H](CN[C@@H]2C(=O)N[C@@H]2C/C=C/[C@@H](CO)CSC3O[C@H]2C(O)C(O)[C@H]3O)C1 (single isomer, unassigned) [FSA1608025A, formate salt]	> 64	4	4	8	8	> 64	32	64	64	–	–	–	–	–	–	–
CC(C)C[C@@H]1CCO[C@@H]2[C@H](CN[C@@H]2C(=O)N[C@@H]2C/C=C\[C@@H](CN3CCCC3)CS[C@H]3O[C@H]2[C@H](O)[C@H](O)[C@H]3O)C1 [FSA1608037, (4S,5aS,8S,8aR)-4-isobutyl-N-((1R,4S,8R,9R,10R,11S,12R,Z)-10,11,12-trihydroxy-4-(pyrrolidin-1-ylmethyl)-13-oxa-2-thiabicyclo[7.3.1]tridec-5-en-8-yl) octahydro-2H-oxepino[2,3-c]pyrrole-8-carboxamide formate salt]	> 64	32	16	16	4	> 64	> 64	> 64	> 64	–	–	–	–	–	–	–
CC(C)C[C@@H]1CCO[C@@H]2[C@H](CN[C@@H]2C(=O)N[C@@H]2C/C=C\[C@@H](CN3CCOCC3)CS[C@H]3O[C@H]2[C@H](O)[C@H](O)[C@H]3O)C1 [FSA1608036, (4S,5aS,8S,8aR)-4-isobutyl-N-((1R,4S,8R,9R,10R,11S,12R,Z)-10,11,12-trihydroxy-4-(morpholinomethyl)-13-oxa-2-thiabicyclo[7.3.1]tridec-5-en-8-yl) octahydro-2H-oxepino[2,3-c]pyrrole-8-carboxamide formate salt]	16	0.5	1	1	–	8	1	8	16	0.25	–	–	–	–	–	–
CC(C)C[C@@H]1CCO[C@@H]2[C@H](CN[C@@H]2C(=O)N[C@H]2[C@H]3O[C@H](S[C@H](c4cn(-c5ccc(F)cc5)nn4)C/C=C\[C@H]2C)[C@H](O)[C@@H](O)[C@H]3O)C1 [FSA1609037, (4S,5aS,8S,8aR)—N-((1R,3S,7R,8R,9R,10R,11S,12R,Z)-3-(1-(4-fluorophenyl)-1H-1,2,3-triazol-4-yl)-10,11,12-trihydroxy-7-methyl-13-oxa-2-thiabicyclo[7.3.1]tridec-5-en-8-yl)-4-isobutyloctahydro-2H-oxepino[2,3-c]pyrrole-8-carboxamide formate salt]	–	–	–	–	0.5	–	–	–	–	0.5	0.5	0.25	16	1	1	0.5
CC(C)C[C@@H]1CCO[C@@H]2[C@H](CN[C@@H]2C(=O)N[C@@H]2C/C=C/[C@@H](O)CS[C@H]3O[C@H]2[C@H](O)[C@H](O)[C@H]3O)C1 [FSA1608016, (4S,5aS,8S,8aR)-4-isobutyl-N-((1R,4R,8R,9R,10R,11S,12R,E)-4,10,11,12-tetrahydroxy-13-oxa-2-thiabicyclo[7.3.1]tridec-5-en-8-yl) octahydro-2H-oxepino[2,3-c]pyrrole-8-carboxamide formate salt]	> 64	8	8	8	8	> 64	64	> 64	> 64	–	–	–	–	–	–	–
CC(C)C[C@@H]1CCO[C@@H]2[C@H](CN[C@@H]2C(=O)N[C@@H]2C/C=C\[C@@H](CO)CS[C@H]3O[C@H]2[C@H](O)[C@H](O)[C@H]3O)C1 [FSA1608024, (4S,5aS,8S,8aR)-4-isobutyl-N-((1R,4S,8R,9R,10R,11S,12R,Z)-10,11,12-trihydroxy-4-(hydroxymethyl)-13-oxa-2-thiabicyclo[7.3.1]tridec-5-en-8-yl) octahydro-2H-oxepino[2,3-c]pyrrole-8-carboxamide formate salt]	> 64	4	2	2	4	> 64	16	64	64	–	–	–	–	–	–	–
